For orientation: melting point means the temperature of the solid-liquid transition. `Cc1ccc(-c2cc(CN(C)C)c(=O)n(CC(C)C)n2)cc1F.Cl` [Example 8, 4-dimethylaminomethyl-6-(3-fluoro-4-methylphenyl)-2-isobutyl-2H-pyridazin-3-one hydrochloride] registered a melting point of 246.5 to 248.5 °C.

`COc1ccc(-c2cc(CN3CCNCC3)c(=O)n(Cc3ccc(F)cc3)n2)cc1F` [Example 192, 2-(4-fluorobenzyl)-6-(3-fluoro-4-methoxyphenyl)-4-(1-piperazinyl)methyl-2H-pyridazin-3-one] yielded a melting point of 142 to 143 °C.

With `Cc1ccc(-c2cc(CNC(CO)CO)c(=O)n(CC(C)C)n2)cc1` [Example 52, 4-(1,3-dihydroxypropan-2-yl)aminomethyl-2-isobutyl-6-(4-methylphenyl)-2H-pyridazin-3-one], the melting point fell in the range of 134.1 to 135.2 °C.

`Cc1ccc(-c2cc(CN3CCN(C)CC3)c(=O)n(CC(C)C)n2)cc1F.Cl.Cl`: the melting point is 248.5 to 252 °C (dec.).

`CC(C)Cn1nc(-c2ccc(-c3ccccc3)cc2)cc(CN2CCN(C)CC2)c1=O.Cl.Cl` gave a melting point of 262.2 to 263.6 °C.

`COc1ccc(-c2cc(CN3CCN(C)CC3)c(=O)n(CC=Cc3ccc(Cl)cc3)n2)cc1F` [Example 209, 2-(4-chlorocinnamyl)-6-(3-fluoro-4-methoxyphenyl)-4-(4-methyl-1-piperazinyl)methyl-2H-pyridazin-3-one]: the melting point was 123.9 to 125.5 °C.

Consider `Cc1cc(-c2cc(CN(C)C)c(=O)n(CC=Cc3ccc(Cl)cc3)n2)ccc1F.Cl`, for which the melting point lay within 201.3 to 201.9 °C.

`CC(C)Cn1nc(-c2ccc(C(F)(F)F)cc2)cc(CN2CCNCC2)c1=O.Cl.Cl` had a melting point of 210.8 to 212.5 °C.

Take `Cc1cc(-c2cc(CN3CCNCC3)c(=O)n(Cc3ccccc3)n2)ccc1F.Cl.Cl`: the melting point was 162.7 to 180.7 °C (dec.).

On to `Cc1cc(-c2cc(CN(C)C)c(=O)n(Cc3ccccc3)n2)ccc1F.Cl`, for which the melting point lay in the range of 225.3 to 226 °C.

Regarding `CC(C)Cn1nc(-c2ccccc2)cc(CN(C)C)c1=O.Cl`, the melting point was 221.7 to 222.3 °C.

As for `Cc1cc(-c2cc(CN3CCN(C)CC3)c(=O)n(Cc3ccc(Cl)cc3)n2)ccc1F.Cl.Cl`, the melting point is 246.4 to 249.7 °C (dec.).

In turn, `COc1ccc(-c2cc(CN3CCNCC3)c(=O)n(CC(C)C)n2)cc1Cl.Cl.Cl` yielded a melting point of 203.6 to 204.5 °C.

For the compound `COc1ccc(-c2cc(CN(C)C)c(=O)n(Cc3ccc(F)cc3)n2)cc1F` [Example 190, 4-dimethylaminomethyl-2-(4-fluorobenzyl)-6-(3-fluoro-4-methoxyphenyl)-2H-pyridazin-3-one], the melting point was in the range of 127 to 129 °C.

For the compound `COc1ccc(-c2cc(CN(C)C)c(=O)n(Cc3ccc(F)c(F)c3)n2)cc1F` [Example 208, 2-(3,4-difluorobenzyl)-4-dimethylaminomethyl-6-(3-fluoro-4-methoxyphenyl)-2H-pyridazin-3-one], the melting point was 129.9 to 130.4 °C.

In the case of `CC(C)Cn1nc(-c2ccc([S+](C)[O-])cc2)cc(CN2CCN(C)CC2)c1=O.Cl.Cl` (stereo not drawn), the melting point was 224.5 to 229.1 °C (dec.).

As to `Cc1c(-c2ccc(C(F)(F)F)cc2)nn(CC(C)C)c(=O)c1N1CCN(C)CC1.Cl.Cl`, the melting point was 249.9 to 252.8 °C.

With `COc1ccc(-c2cc(CN)c(=O)n(Cc3ccc(Cl)cc3)n2)cc1F` [Example 205, 4-aminomethyl-2-(4-chlorobenzyl)-6-(3-fluoro-4-methoxyphenyl)-2H-pyridazin-3-one], the melting point was in the range of 128.5 to 131.4 °C.

Turning to `CN1CCN(Cc2cc(-c3ccc([S+](C)[O-])cc3)nn(CC3CC3)c2=O)CC1.Cl.Cl` (stereo not drawn), the melting point was 80 °C (dec.).

In turn, `COc1ccc(-c2cc(CN)c(=O)n(Cc3ccc(F)cc3)n2)cc1F` [Example 194, 4-aminomethyl-2-(4-fluorobenzyl)-6-(3-fluoro-4-methoxyphenyl)-2H-pyridazin-3-one] showed a melting point of 145 to 149 °C.

With `COc1ccc(-c2cc(CN3CCN(C)CC3)c(=O)n(CC(C)C)n2)cc1F.Cl.Cl`, the melting point is 236.9 to 237 °C.

Compound `CC(C)Cn1nc(-c2ccccc2)cc(CN2CCN(C)CC2)c1=O.Cl.Cl` returned a melting point of 243.8 to 244.3 °C.

Compound `CC(C)Cn1nc(-c2ccc(F)c(F)c2)cc(CN2CCNCC2)c1=O.Cl.Cl` showed a melting point of 182.5 to 186 °C.

Regarding `CSc1ccc(-c2cc(CN(C)C)c(=O)n(CC(C)C)n2)cc1.Cl` [Example 161, 4-dimethylaminomethyl-2-isobutyl-6-[4-(methylthio)phenyl]-2H-pyridazin-3-one hydrochloride], the melting point fell in the range of 216.8 to 218.4 °C.

Turning to `CN(C)Cc1cc(-c2ccc(S(C)(=O)=O)cc2)nn(CC2CC2)c1=O.Cl`, the melting point fell in the range of 239.5 to 240.7 °C.

In the case of `CN1CCN(Cc2cc(-c3ccc(S(C)(=O)=O)cc3)nn(CC3CC3)c2=O)CC1.Cl.Cl`, the melting point was in the range of 209 to 211.4 °C.

The compound `CC(C)Cn1nc(-c2ccc(S(C)(=O)=O)cc2)cc(CN(C)C)c1=O.Cl` returned a melting point of 221.4 to 223.3 °C.

Turning to `COc1ccc(-c2cc(CN3CCN(C)CC3)c(=O)n(Cc3ccc(F)c(F)c3)n2)cc1F` [Example 207, 2-(3,4-difluorobenzyl)-6-(3-fluoro-4-methoxyphenyl)-4-(4-methyl-1-piperazinyl)methyl-2H-pyridazin-3-one], the melting point was in the range of 135.4 to 136 °C.

Compound `Cc1ccc(-c2cc(CN)c(=O)n(CC(C)C)n2)cc1` [Example 50, 4-aminomethyl-2-isobutyl-6-(4-methylphenyl)-2H-pyridazin-3-one] displayed a melting point of 74.9 to 77.9 °C.

Compound `Cc1cc(-c2cc(CN3CCN(C)CC3)c(=O)n(Cc3ccccc3Cl)n2)ccc1F` [Example 224, 2-(2-chlorobenzyl)-6-(4-fluoro-3-methylphenyl)-4-(4-methyl-1-piperazinyl)methyl-2H-pyridazin-3-one] yielded a melting point of 149.7 to 150.9 °C.

For `Cc1cc(-c2cc(CN)c(=O)n(Cc3ccccc3Cl)n2)ccc1F` [Example 237, 4-aminomethyl-2-(2-chlorobenzyl)-6-(4-fluoro-3-methylphenyl)-2H-pyridazin-3-one], the melting point fell in the range of 97.6 to 102.2 °C.

`CC(C)Cn1nc(-c2ccc(C(F)(F)F)cc2)cc(CN(C)C)c1=O.Cl` gave a melting point of 242.2 to 242.3 °C.

Turning to `COc1ccc(-c2cc(CCCN3CCN(C)CC3)c(=O)n(Cc3ccc(F)cc3)n2)cc1F` [Example 239, 2-(4-fluorobenzyl)-6-(3-fluoro-4-methoxyphenyl)-4-[3-(4-methyl-1-piperazinyl)propyl]-2H-pyridazin-3-one], the melting point lay within 108 to 109 °C.

Take `CC(C)Cn1nc(-c2ccc(S(C)(=O)=O)cc2)cc(CN2CCNCC2)c1=O.Cl.Cl`: the melting point lay in the range of 222.4 to 224.2 °C.

In turn, `COc1ccc(-c2cc(CN3CCNCC3)c(=O)n(CC3CC3)n2)cc1F` [Example 20, 2-cyclopropylmethyl-6-(3-fluoro-4-methoxyphenyl)-4-(1-piperazinyl)methyl-2H-pyridazin-3-one] registered a melting point of 111.5 to 118 °C.

`CSc1ccc(-c2cc(CN3CCN(C)CC3)c(=O)n(CC(C)C)n2)cc1.Cl.Cl` returned a melting point of 242.6 to 243.7 °C.

As for `Cc1cc(-c2cc(CN(C)C)c(=O)n(CC=Cc3ccccc3)n2)ccc1F.Cl`, the melting point lay in the range of 183.6 to 184.5 °C.

For `Cc1c(-c2ccccc2)nn(CC(C)C)c(=O)c1N1CCNCC1.Cl.Cl`, the melting point was 154.3 to 159.5 °C.

With `CC(C)Cn1nc(-c2ccc(-c3ccccc3)cc2)cc(CN2CCNCC2)c1=O.Cl.Cl`, the melting point fell in the range of 226.8 to 228 °C.

`COc1ccc(-c2cc(CN3CCN(C)CC3)c(=O)n(CC(C)C)n2)cc1Cl.Cl.Cl` registered a melting point of 235.8 to 236.7 °C.

As for `Cc1cc(-c2cc(CN)c(=O)n(Cc3ccccc3Cl)n2)ccc1F.Cl`, the melting point was 201.9 to 206.4 °C.

As for `COc1ccc(-c2cc(CN(C)C)c(=O)n(CCCc3ccc(F)cc3)n2)cc1F` [Example 197, 4-dimethylaminomethyl-6-(3-fluoro-4-methoxyphenyl)-2-[3-(4-fluorophenyl)propyl]-2H-pyridazin-3-one], the melting point fell in the range of 97 to 100 °C.

Turning to `COc1ccc(-c2cc(CN(C)C)c(=O)n(Cc3ccc(Cl)cc3)n2)cc1F` [Example 203, 2-(4-chlorobenzyl)-4-dimethylaminomethyl-6-(3-fluoro-4-methoxyphenyl)-2H-pyridazin-3-one], the melting point lay in the range of 95.3 to 96.7 °C.

In turn, `CC(C)Cn1nc(-c2ccc(-c3ccccc3)cc2)cc(CN(C)C)c1=O.Cl` displayed a melting point of 243.9 to 244.1 °C.

The compound `Cc1cc(-c2cc(CN3CCN(C)CC3)c(=O)n(CC=Cc3ccccc3)n2)ccc1F.Cl.Cl` yielded a melting point of 236.1 to 237.1 °C.

With `Cc1cc(-c2cc(CN3CCNCC3)c(=O)n(CC=Cc3ccccc3)n2)ccc1F.Cl.Cl`, the melting point was 171.1 to 187.1 °C (dec.).

In turn, `CC(C)Cn1nc(-c2ccc(F)c(F)c2)cc(CN2CCN(C)CC2)c1=O.Cl.Cl` gave a melting point of 242.5 to 243.4 °C.

Consider `Cc1cc(-c2cc(CN3CCNCC3)c(=O)n(CC=Cc3ccc(Cl)cc3)n2)ccc1F.Cl.Cl`, for which the melting point was 186.7 to 197 °C (dec.).

Compound `CNCc1cc(-c2ccc(OC)c(F)c2)nn(CC2CC2)c1=O` [Example 9, 2-cyclopropylmethyl-6-(3-fluoro-4-methoxyphenyl)-4-methylaminomethyl-2H-pyridazin-3-one] yielded a melting point of 169.1 to 170.7 °C.

`C#CCNCc1cc(-c2ccc(SC)cc2)nn(CC(C)C)c1=O.Cl` [Example 163, 2-isobutyl-6-[4-(methylthio)phenyl]-4-propargylaminomethyl-2H-pyridazin-3-one hydrochloride]: the melting point lay within 197.5 to 198.4 °C.

Take `Cc1cc(-c2cc(CN3CCN(C)CC3)c(=O)n(Cc3ccccc3)n2)ccc1F.Cl.Cl`: the melting point was 240 to 242.5 °C (dec.).

With `COc1ccc(-c2cc(CN3CCNCC3)c(=O)n(CC(C)C)n2)cc1F.Cl.Cl`, the melting point is 163 to 177 °C (dec.).

Regarding `COc1ccc(-c2cc(CN(C)C)c(=O)n(CC(C)C)n2)cc1Cl.Cl`, the melting point lay within 213.6 to 214.3 °C.

Turning to `CSc1ccc(-c2cc(CN3CCNCC3)c(=O)n(CC(C)C)n2)cc1.Cl.Cl`, the melting point was 248.5 to 253.7 °C (dec.).

The values are drawn from patent US7211577B2, “Water-soluble phenylpyridazine derivative and medicine containing the same” (Kowa Co., Ltd., priority 2003, dated 2007).
